Experimental data from the NIST ThermoML archive (doi:10.1021/je7005727).
± gives the expanded uncertainty stated by the source.

Conditions: 101.33 kPa, Liquid; for speed of sound: Sing-around technique in a fixed-path interferometer

mass density (293.15 K) | speed of sound (293.15 K) | mass density (298.15 K) | speed of sound (298.15 K) | mass density (303.15 K) | speed of sound (303.15 K) | Structure (SMILES)
809.644 ± 0.46 kg/m3 | 1256.7 ± 0.82 m/s | 805.842 ± 0.47 kg/m3 | 1239.2 ± 0.81 m/s | 801.995 ± 0.47 kg/m3 | 1222.7 ± 0.81 m/s | CCCCO [butan-1-ol]
– | 1320.3 ± 1.2 m/s | – | 1303 ± 1.2 m/s | – | 1286.3 ± 1.2 m/s | CCCCCCO [hexan-1-ol]
814.738 ± 0.76 kg/m3 | 1292.5 ± 1.2 m/s | 811.067 ± 0.77 kg/m3 | 1275.1 ± 1.2 m/s | 807.366 ± 0.78 kg/m3 | 1258.5 ± 1.2 m/s | CCCCCO [pentan-1-ol]
